Test results published in patent US8586638B2, “Parakeratosis inhibitor and skin preparation for external use” (priority 2003, dated 2013).
Several values for one entry are separate records, joined by “and”; a condition that tells them apart may be missing. Equal entries are not always repeated. Where a SMILES comes first, the peptide text is derived from it.

Key:
[1] = test system: parakeratosis and skin roughness caused by oleic acid on the back of hairless mice; assay: Parakeratosis inhibition effect test: oleic acid applied to the back of hairless mice, visual skin roughness and parakeratosis level; assay type: in vivo, hairless mice (HR-1); set-up: key to Evaluation Visual (mean of 4 mice), skin roughness: 0.0 = no roughness, 2.0 = control application; 0.25 steps; conditions: for Evaluation Parakeratosis (mean of 4 mice): range 1.0 to 3.0, higher = severer, control 2.0; for Evaluation Visual (mean of 4 mice), skin roughness: score 0.0 no roughness, 2.0 control
Summary of the method: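 Hairless mice (HR-1) received 100 microliters of 10 weight % oleic acid in ethanol on the back, followed by 100 microliters of test solution (aqueous, with 30 weight % ethanol, pH 7.0 to 7.5), repeated for 3 days. The next day, CCD-camera images were scored visually for roughness (control 2.0, none 0.0), and tape-stripped haematoxylin-stained stratum corneum was graded for parakeratosis from 1.0 to 3.0 in 0.25 steps.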

[2] = test system: pores on the cheek of healthy male subjects; assay: Effect of shrinking human pores: replica evaluation of cheek pores; assay type: in vivo; conditions: for Replica Evaluation (mean of n = 5), difference of pore size score before/after application: twice a day for a month, cheek
Experimental: An experiment of application of sample twice a day for a month on the cheek of healthy male subjects, was conducted with each group consisting of 5 individuals. 3 weight % solution of the glycine derivatives in accordance with the invention 1 (including 15 weight % of ethanol) was prepared. pH was regulated to the range between 7.0 and 7.5, by using hydrochloric acid and/or sodium hydroxide. Control was 15 weight % ethanol solution. Said 3 weight % solution was applied to one side and said control solution was applied to the other side.
Replicas were prepared prior to and after the application to observe the change of form of pores in the same spot under a three-dimensional laser scanning microscope. The size of pores was evaluated visually 13 steps from 1 to 13 (larger number indicates larger pore size), and the difference between the resulted evaluations before/after the application experiment was then calculated to study the effectiveness of each specimen.
An experiment of application of sample twice a day for a month on the cheek of healthy male subjects, was conducted with each group consisting of 5 individuals. 3 weight % solution of the glycine derivatives and the salts thereof as well as the aminosulfuric acid derivatives and the salts thereof in accordance with the invention 2 (including 15 weight % of ethanol), 2 weight % solution of ACES (including 15 weight % of ethanol), 3 weight % solution of CAPS (including 15 weight % of ethanol), and 3 weight % solution of CAPSO (including 15 weight % of ethanol) were prepared. pH was regulated to the range between 7.0 and 7.5, by using hydrochloric acid and/or sodium hydroxide. 15 weight % ethanol solution was used as control. Said sample solutions was applied to one side, and said control solution was applied to the other side.

[3] = test system: skin surface stratum corneum of human cheek; assay: Parakeratosis inhibition effect on human skin by N-ethylglycine: number of nuclear cells of skin surface stratum corneum; assay type: in vivo; conditions: 3 weight % N-ethylglycine side against control side (15 weight % ethanol); area 12 mm by 34 mm; FIG. 2
Source text: (§1) In the pore-shrinking effect test on human skin as described in the embodiment 5, the application of N-ethylglycine was further studied about the amelioration of parakeratosis by measuring the number of nuclear cell of skin surface stratum corneum, obtained by means of a tape. Replica was used to actually measure the pore size within the area of 3.34 mm by 3.34 mm to evaluate the pore-shrinking effect.
(§2) More specifically, the skin surface stratum corneum was sampled by means of carton tape (Nichiban, Co. Ltd.) only after the application of sample, Hoechst 33342 solution dissolved in PBS to 0.1 mg/ml was then added, and after the sample was placed in a dark place for 20 minutes, the number of nuclear cells within the area of 12 mm by 34 mm by using a fluorescent microscope. For the replicas made by using silflo (Flexico, Co. Ltd.) was measured before and after the application to capture three-dimensional surface form within the same area (3.34 mm by 3.34 mm) with a confocal microscope (HD100D, Lasertech) to measure and compare the size of pores (surface area value).

[4] = test system: pores on the cheek of healthy male subjects; assay: Pore-shrinking effect on human skin by N-ethylglycine: pore surface area by replica analysis; assay type: in vivo; conditions: 3 weight % N-ethylglycine side; control 92%; area 3.34 mm by 3.34 mm; FIG. 3
Source text: as §1, §2

[5] = test system: skin roughness caused by oleic acid on the back of hairless mice; assay: Inhibitory effect on skin roughness by the application of oleic acid (TEWL value); assay type: in vivo, hairless mice (HR-1); set-up: ΔTEWL: unit not given here
Summary of the method: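 HR-1 hairless mice (four per group) received 100 μl 10 weight % oleic acid in ethanol on the back, then 100 μl test solution, repeated for 3 days. TEWL measured the day after application and averaged; delta-TEWL versus control solution reflects skin roughness, larger meaning worse.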

[6] = test system: pores (conical portion) on the cheek of healthy adult males; assay: Effect of shrinking human pores by glycylglycine: conical portion surface area from cheek replica; assay type: in vivo
Experimental: Since we obtained a good result from glycylglycine in the embodiment 2, we conducted an application experiment of glycylglycine three times a day (0.1 milliliter each) on the cheek of 21 healthy adult males (age of 20s to 50s, average 40.4 years old) for a period of one month. 1.6% (w/w) glycylglycine solution (pH regulated to 7.0) including 15% (w/w) ethanol, and 15% (w/w) ethanol solution (control) was prepared, for applying the same to each one side cheek.
By obtaining a cheek replica (Silflo) before and after the continuous application, the surface area of conical portion was measured by a three-dimensional analysis system (Okuri et al., Japan Society of Dermatology Annual Meeting Program/Abstract, 2004, 104, pp. 601) by means of wide view confocal microscope HD100D (lasertech).
For the surface area recognized as pore portion within the replica measuring area of 3.34 mm by 3.34 mm, the conical portion surface area (mm2) and the ratio thereof before and after the application is shown in Table 3. From Table 3, The ratio among the panel that the surface area of glycylglycine applied side was decreased more than 10% when compared to the control application side (glycylglycine side was shrunk), the panel that the variation was within 10% and no noticeable change observed (no change), and the panel that the control application side was decreased more than 10% (other side was shrunk) was 13:5:3.
When averaging the surface area ratio before and after the application, the side of control solvent solution was 102%, while the side of glycylglycine was reduced to 89%. By evaluating this surface area ratio with t-analysis, we obtained p=0.019, indicating significant shrinkage of pore area in the glycylglycine applied side (see FIG. 1).

[7] = test system: pores (conical portion) on the cheek of healthy adult males; assay: as above; assay type: in vivo; conditions: glycylglycine applied side compared with ethanol applied side
[8] = Table 4, sample 3 weight % in aqueous 30 weight % ethanol (hydantoic acid: 20 weight % ethanol)
[9] = sample 3 weight % in aqueous 30 weight % ethanol, after 10 weight % oleic acid, 3 days

SMILES | Evaluation Parakeratosis (mean of 4 mice) [1, 8] | Evaluation Visual (mean of 4 mice), skin roughness [1, 8] | effect of inhibiting parakeratosis (conclusion from Table 4) ([1]; hairless mice, oleic acid, fourth embodiment) | Replica Evaluation (mean of n = 5), difference of pore size score before/after application ([2]; Table 5, 3.0 weight % solution (15 weight % ethanol), control 0.3) | effect of pore-shrinking (conclusion from Table 5) ([2]; human cheek, fifth embodiment) | number of nuclear cells of skin surface stratum corneum [3] | surface area of pores, average as compared to pre-application status [4] [%] | decrease of delta-TEWL value as compared to the control solution (conclusion from Table 6) ([5]; hairless mice, oleic acid, seventh embodiment) | ΔTEWL ([5]; sample 3 weight %, after 10 weight % oleic acid, 3 days, four mice per group, larger = severer roughness, control 12.0) | effect of inhibiting parakeratosis (conclusion from Table 1) ([1]; hairless mice, oleic acid, first embodiment) | Evaluation Parakeratosis (mean of 4 mice) [1, 9] | Evaluation Visual (mean of 4 mice), skin roughness [1, 9] | Replica Evaluation (mean of n = 5), difference of pore size score before/after application ([2]; 3 weight % solution (15 weight % ethanol), 13 steps, larger = larger pore, control 0.2) | pore-shrinking effect (conclusion from Table 2) ([2]; human cheek, second embodiment) | average surface area ratio before and after the application ([6]; glycylglycine side, control solvent side 102%, p=0.019) [%] | conical portion surface area after application ([6]; individual panels #1-21, 1.6% (w/w) glycylglycine, 15% ethanol, three times a day, one month, area 3.34 mm by 3.34 mm) | conical portion surface area ratio after/before ([6]; individual panels #1-21, 1.6% (w/w) glycylglycine, three times a day, one month) | conical portion surface area ratio after/before, mean ([6]; mean of 21 panels (S.D. 0.2597), 1.6% (w/w) glycylglycine, control mean 1.017) | photographic evaluation of conspicuous pores [7]
CCNCC(=O)O [N-ethylglycine] | 1.2 | 1.3 | have the effect of inhibiting parakeratosis | −1.4 | demonstrated the effect of pore-shrinking | fewer number of nuclear cells | 73 | significant decrease of delta-TEWL value | 9.0 |  |  |  |  |  |  |  |  |  | 
NCC(=O)NCC(=O)O [glycylglycine] (H-Gly-Gly-OH) |  |  |  |  |  |  |  |  |  | have the effect of inhibiting parakeratosis | 1.2 | 1.2 | −1.0 | pore-shrinking effect was observed | 89 | 1.2057 mm^2 and 1.3727 mm^2 and 1.5166 mm^2 and 1.4427 mm^2 and 1.2368 mm^2 and 0.6078 mm^2 and 0.3675 mm^2 and 0.4880 mm^2 and 1.1250 mm^2 and 0.5977 mm^2 and 1.3739 mm^2 and 0.2691 mm^2 and 1.2348 mm^2 and 1.2053 mm^2 and 1.0498 mm^2 and 0.3669 mm^2 and 0.6778 mm^2 and 1.0541 mm^2 and 0.5801 mm^2 and 0.6728 mm^2 and 1.3879 mm^2 | 0.8948 and 0.9818 and 1.0512 and 1.0627 and 1.0535 and 0.7494 and 0.5279 and 0.7405 and 0.7878 and 0.6357 and 0.8594 and 0.4111 and 1.3932 and 0.8940 and 1.2831 and 0.5594 and 0.7676 and 0.8700 and 1.2931 and 0.7612 and 1.0131 | 0.8853 | ameliorated
